Measurements taken from patent publication US20010006646A1, “METHOD AND SYSTEM FOR TREATMENT OF WOUNDS” (priority 1996, published 2001).

How the values were obtained:
[1] = test system: 18 month old chronic bed sore on the middle of their back; experiment: Example 2: old chronic back wound (bed sore), treatment of a human patient; type: in vivo; conditions: dressings in conjunction with two serial courses of antibiotics (per orum Cipro 500 mg B.I.D., then 500 mg intravenous Keflex every eight hours)
Method: The chemical debriding complex applied to each of the wounds treated in examples 2 through 4 was an aerosolized liquid composition comprising:
(§1) The formulation of the present invention used in the following examples was prepared in the form of a gel as follows:
(§2) (4) 1 ml of mixture (a), 1 ml of mixture (b) and 1 ml of mixture (c) were combined using a three step homogenization process to form the gel formulation of the present invention used in the following examples, namely
(§3) The dose of formulation used in treating the wounds in the following examples was based on the wound volume. The wound volume was measured in cubic centimeters using well known methods.
(§4) The wound was subsequently treated using the gel formulation prepared as described above. Specifically, the given formulation was administered to the patient's wound as part of the following treatment procedure. Particularly, (i) the wound was prepared for administration of the given formulation by liberal application of a chemical debriding complex described above; (ii) after allowing the chemical debriding complex to bubble off, about three (3) minutes, a medicated pad comprising a sterile pad containing about three (3) ml of the gel formulation for each cubic centimeter of wound volume was placed over the wound and secured to the patient; (iii) the medicated pad was removed about twenty-four (24) hours later; (iv) steps (i) through (iii) were repeated. After seven (7) days of treatment, the wound was completely closed.
A human patient in very poor health suffering from CHF, diabetes, peripheral vascular disease, 10% body surface non-candidyal yeast infection, nutritional deficit, and “steroid” skin secondary to prednisone administration for auto-immune arthritis and from an 18 month old chronic bed sore on the middle of their back. Conventional treatments, including granulex, zinc oxide, duoderm and sorbasan dressings in conjunction with two serial courses of oral antibiotics, per orum Cipro 500 mg B.I.D. followed by 500 mg intravenous Keflex every eight hours, were unsuccessful at stimulating the healing of the wound. […]

[2] = test system: 16 month old chronic interstitial, encapsulated, alpha-hemolytic, streptococcal channelling ulceration located on their right ankle; experiment: Example 1: old chronic ankle wound, treatment of a human patient; type: in vivo; conditions: for outcome of conventional per orum treatments / outcome of conventional intravenous treatments: two week cycle each, not given in the same period
Method: The concepts of the invention will now be illustrated by the following Examples, which are intended to be purely exemplary and not limiting. The chemical debriding complex applied to the wound treated in example 1 was an aerosolized liquid composition comprising:
as §1, §2, §3
A human patient in normal health, suffered from a 16 month old chronic interstitial, encapsulated, alpha-hemolytic, streptococcal channelling ulceration located on their right ankle and tunnelled to the periosteum of the bone in their right ankle. […] Conventional intravenous treatments, including a two week cycle of penicillin and a two week cycle of amoxicillin, were unsuccessful. Note that the penicillin and the amoxicillin were not administered during the same two week period. Conventional per orum treatments, including a two week cycle of Keflex® and a two week cycle of Cipro®, were unsuccessful. Note that the Keflex and Cipro were not administered during the same two week period, nor were they administered during the same two week period as either of the penicillin or the amoxicillin.
as §4

[3] = test system: six (6) month old chronic pressure-friction wound on both haunches; experiment: Example 3: canine pressure wound; type: in vivo, Borzoi; conditions: duoderm post shaving; before treatment with the formulation

Compound	outcome of conventional treatments at stimulating the healing of the wound [1]	outcome of conventional per orum treatments [2]	outcome of conventional intravenous treatments [2]	outcome of conventional topical treatments ([2]; topical, before treatment with the gel formulation)	outcome of conventional treatments [3]
O=C(O)c1cn(C2CC2)c2cc(N3CCNCC3)c(F)cc2c1=O [Cipro]	unsuccessful	unsuccessful	–	–	–
CC1(C)S[C@@H]2[C@H](NC(=O)[C@H](N)c3ccc(O)cc3)C(=O)N2[C@H]1C(=O)O [amoxicillin]	–	–	unsuccessful	–	–
[O]=[Zn] [zinc oxide]	unsuccessful	–	–	repeatedly unsuccessful	repeatedly unsuccessful
penicillin	–	–	unsuccessful	–	–
CC1=C(C(=O)O)N2C(=O)[C@@H](NC(=O)[C@H](N)c3ccccc3)[C@H]2SC1 [Keflex]	unsuccessful	unsuccessful	–	–	–
